Measurements published in PubChem BioAssay AID1259407 (Chemical Carcinogenesis Research Information System (CCRIS), 2018).
Activity calls are given as the source filed them. How the calls were made is not given here.

System: CCRIS mutagenicity, Ames/micronucleus/aberration tests
Experiment: CCRIS mutagenicity studies
[1] = Test System: AMES SALMONELLA TYPHIMURIUM, Strain/Indicator: TA98, Metabolic Activation: NONE, Method: PREINCUBATION
[2] = Test System: AMES SALMONELLA TYPHIMURIUM, Strain/Indicator: TA100, Metabolic Activation: NONE, Method: PREINCUBATION
[3] = Test System: AMES SALMONELLA TYPHIMURIUM, Strain/Indicator: TA98, Metabolic Activation: NONE, Method: STANDARD PLATE
[4] = Test System: AMES SALMONELLA TYPHIMURIUM, Strain/Indicator: TA98, Metabolic Activation: RAT, LIVER, S-9, AROCLOR 1254, Method: STANDARD PLATE
[5] = Test System: AMES SALMONELLA TYPHIMURIUM, Strain/Indicator: TA100, Metabolic Activation: NONE, Method: STANDARD PLATE
[6] = Test System: AMES SALMONELLA TYPHIMURIUM, Strain/Indicator: TA100, Metabolic Activation: RAT, LIVER, S-9, AROCLOR 1254, Method: STANDARD PLATE
[7] = Test System: AMES SALMONELLA TYPHIMURIUM, Strain/Indicator: TA1535, Metabolic Activation: NONE, Method: PREINCUBATION
[8] = Test System: AMES SALMONELLA TYPHIMURIUM, Strain/Indicator: TA1537, Metabolic Activation: NONE, Method: PREINCUBATION

Measured: mutagenic call

O=C(Cl)c1ccc(Cl)cc1Cl
inactive: [1] inactive; negative | [2] inactive; negative | Test System: AMES SALMONELLA TYPHIMURIUM, Strain/Indicator: TA104, Metabolic Activation: NONE, Method: PREINCUBATION inactive; negative | Test System: Ames Salmonella typhimurium, Strain/Indicator: TA98, Metabolic Activation: None, Method: Preincubation inactive; negative | Test System: Ames Salmonella typhimurium, Strain/Indicator: TA98, Metabolic Activation: Rat, Liver, S9, Sodium phenobarbital and 5,6-benzoflavone, Method: Preincubation inactive; negative | Test System: Ames Salmonella typhimurium, Strain/Indicator: TA100, Metabolic Activation: None, Method: Preincubation inactive; negative | Test System: Ames Salmonella typhimurium, Strain/Indicator: TA100, Metabolic Activation: Rat, Liver, S9, Sodium phenobarbital and 5,6-benzoflavone, Method: Preincubation inactive; negative | Test System: Ames Salmonella typhimurium, Strain/Indicator: TA1535, Metabolic Activation: None, Method: Preincubation inactive; negative | Test System: Ames Salmonella typhimurium, Strain/Indicator: TA1535, Metabolic Activation: Rat, Liver, S9, Sodium phenobarbital and 5,6-benzoflavone, Method: Preincubation inactive; negative | Test System: Ames Salmonella typhimurium, Strain/Indicator: TA1537, Metabolic Activation: None, Method: Preincubation inactive; negative | Test System: Ames Salmonella typhimurium, Strain/Indicator: TA1537, Metabolic Activation: Rat, Liver, S9, Sodium phenobarbital and 5,6-benzoflavone, Method: Preincubation inactive; negative | Test System: E. coli, Strain/Indicator: WP2uvrA/pKM101, Metabolic Activation: None, Method: Preincubation inactive; negative | Test System: E. coli, Strain/Indicator: WP2uvrA/pKM101, Metabolic Activation: Rat, Liver, S9, Sodium phenobarbital and 5,6-benzoflavone, Method: Preincubation inactive; negative | Test System: E.COLI, Strain/Indicator: WP2 UVRA, Metabolic Activation: NONE, Method: PREINCUBATION inactive; negative | Test System: E.COLI, Strain/Indicator: WP2 UVRA, Metabolic Activation: RAT LIVER S-9, PCB, Method: PREINCUBATION inactive; negative
active: Test System: AMES SALMONELLA TYPHIMURIUM, Strain/Indicator: TA98, Metabolic Activation: RAT LIVER S-9, PCB, Method: PREINCUBATION active; positive | Test System: AMES SALMONELLA TYPHIMURIUM, Strain/Indicator: TA100, Metabolic Activation: RAT LIVER S-9, PCB, Method: PREINCUBATION active; positive | Test System: AMES SALMONELLA TYPHIMURIUM, Strain/Indicator: TA104, Metabolic Activation: RAT LIVER S-9, PCB, Method: PREINCUBATION active; positive

O=C(O)/C=C/c1ccc([N+](=O)[O-])cc1
active: Test System: AMES SALMONELLA TYPHIMURIUM, Strain/Indicator: TA98(1,8-DNP6), Metabolic Activation: NONE, Method: PREINCUBATION active; positive | Test System: AMES SALMONELLA TYPHIMURIUM, Strain/Indicator: TA98(1,8-DNP6), Metabolic Activation: RAT, LIVER, S-9, AROCLOR 1254, Method: PREINCUBATION active; positive | Test System: AMES SALMONELLA TYPHIMURIUM, Strain/Indicator: TA98(NR), Metabolic Activation: NONE, Method: PREINCUBATION active; positive | Test System: AMES SALMONELLA TYPHIMURIUM, Strain/Indicator: TA98(NR), Metabolic Activation: RAT, LIVER, S-9, AROCLOR 1254, Method: PREINCUBATION active; positive | [1] active; positive | [3] active; positive | Test System: AMES SALMONELLA TYPHIMURIUM, Strain/Indicator: TA98, Metabolic Activation: RAT, LIVER, S-9, AROCLOR 1254, Method: PREINCUBATION active; positive | [4] active; positive | Test System: AMES SALMONELLA TYPHIMURIUM, Strain/Indicator: TA100(1,8-DNP6), Metabolic Activation: NONE, Method: PREINCUBATION active; positive | Test System: AMES SALMONELLA TYPHIMURIUM, Strain/Indicator: TA100(1,8-DNP6), Metabolic Activation: RAT, LIVER, S-9, AROCLOR 1254, Method: PREINCUBATION active; positive | Test System: AMES SALMONELLA TYPHIMURIUM, Strain/Indicator: TA100(NR), Metabolic Activation: NONE, Method: PREINCUBATION active; positive | Test System: AMES SALMONELLA TYPHIMURIUM, Strain/Indicator: TA100(NR), Metabolic Activation: RAT, LIVER, S-9, AROCLOR 1254, Method: PREINCUBATION active; positive | [2] active; positive | [5] active; positive | Test System: AMES SALMONELLA TYPHIMURIUM, Strain/Indicator: TA100, Metabolic Activation: RAT, LIVER, S-9, AROCLOR 1254, Method: PREINCUBATION active; positive | [6] active; positive | [7] active; positive | [8] active; positive | Test System: AMES SALMONELLA TYPHIMURIUM, Strain/Indicator: TA1538, Metabolic Activation: NONE, Method: PREINCUBATION active; positive

COc1c(Cl)cc2c(c1OC)N(C)[C@@H]1N3C(=O)[C@@]4(C)SS[C@@]3(C(=O)N4C)[C@H](O)[C@]21O
inactive: [3] inactive; negative | [4] inactive; negative | [5] inactive; negative | [6] inactive; negative | Test System: AMES SALMONELLA TYPHIMURIUM, Strain/Indicator: TA102, Metabolic Activation: NONE, Method: STANDARD PLATE inactive; negative | Test System: AMES SALMONELLA TYPHIMURIUM, Strain/Indicator: TA102, Metabolic Activation: RAT, LIVER, S-9, AROCLOR 1254, Method: STANDARD PLATE inactive; negative | Test System: AMES SALMONELLA TYPHIMURIUM, Strain/Indicator: TA1537, Metabolic Activation: NONE, Method: STANDARD PLATE inactive; negative | Test System: AMES SALMONELLA TYPHIMURIUM, Strain/Indicator: TA1537, Metabolic Activation: RAT, LIVER, S-9, AROCLOR 1254, Method: STANDARD PLATE inactive; negative

CCCCCN
inactive: Test System: AMES SALMONELLA TYPHIMURIUM, Strain/Indicator: TA98, Metabolic Activation: HAMSTER, LIVER, S-9, AROCLOR 1254 (10%), Method: PREINCUBATION inactive; negative | [1] inactive; negative | Test System: AMES SALMONELLA TYPHIMURIUM, Strain/Indicator: TA98, Metabolic Activation: RAT, LIVER, S-9, AROCLOR 1254 (10%), Method: PREINCUBATION inactive; negative | Test System: AMES SALMONELLA TYPHIMURIUM, Strain/Indicator: TA100, Metabolic Activation: HAMSTER, LIVER, S-9, AROCLOR 1254 (10%), Method: PREINCUBATION inactive; negative | [2] inactive; negative | Test System: AMES SALMONELLA TYPHIMURIUM, Strain/Indicator: TA100, Metabolic Activation: RAT, LIVER, S-9, AROCLOR 1254 (10%), Method: PREINCUBATION inactive; negative | Test System: AMES SALMONELLA TYPHIMURIUM, Strain/Indicator: TA1535, Metabolic Activation: HAMSTER, LIVER, S-9, AROCLOR 1254 (10%), Method: PREINCUBATION inactive; negative | [7] inactive; negative | Test System: AMES SALMONELLA TYPHIMURIUM, Strain/Indicator: TA1535, Metabolic Activation: RAT, LIVER, S-9, AROCLOR 1254 (10%), Method: PREINCUBATION inactive; negative | Test System: AMES SALMONELLA TYPHIMURIUM, Strain/Indicator: TA1537, Metabolic Activation: HAMSTER, LIVER, S-9, AROCLOR 1254 (10%), Method: PREINCUBATION inactive; negative | [8] inactive; negative | Test System: AMES SALMONELLA TYPHIMURIUM, Strain/Indicator: TA1537, Metabolic Activation: RAT, LIVER, S-9, AROCLOR 1254 (10%), Method: PREINCUBATION inactive; negative
